Where no end group is shown, it is not given here.
Legend:
HepG2 cells = experiment: MTT assay, HepG2 cell viability; assay type: cell-based, human; settings: 48 h
Method: A total of 3 × 10^4 HepG2 cells/well were seeded in 96-well plates and treated with peptide H3 (0.00001, 0.0001, 0.001, 0.01, 0.1, and 1.0 mM) or vehicle (H2O) in complete growth media at 37 °C for 48 h under 5% CO2 atmosphere. MTT experiments were performed using the protocol reported in the Supplementary Materials.
HMGCoAR were provided in the HMGCoAR Assay Kit (Sigma Aldrich SRL, Milan, Italy). The experiments were carried out following the manufacturer instructions at 37 °C. […] Subsequently, the samples were mixed and the absorbance at 340 nm read by the microplate reader Synergy H1 […]
vehicle (H2O) in complete growth media for at 37 °C under 5% CO2 atmosphere for 48 h. […] After 5 min of slow shaking, the absorbance at 575 nm was read on the Synergy H1 fluorescence plate reader (Biotek, Bad Friedrichshall, Germany). […]
For the experiments, a total of 3 X 10 4 HepG2 cells/well were seeded in 96-well plates. […] The reaction was stopped with 2 M H2SO4 and then the absorbance at 450 nm was measured using the microplate reader Synergy H1 (Winooski, VT, USA). After the read, cells were stained by adding 1 X Janus Green stain, incubating for 5 min at RT. […]
Afterward 100 µL 0.5 M HCl for well were added and incubated for 10 min. After 10 min shaking, the OD at 595 nm was measured using the microplate reader Synergy H1 (Winooski, VT, USA). […]

Caco-2 cells = settings: differentiated Caco-2; cited from earlier work
Method: CVD is a multifactorial pathology in which oxidative and inflammatory status as well as hypercholesterolemia are among the main risk factors. […] To achieve this goal, a deeper study was carried out for characterizing the potential effect of peptide H3 o ...

[1] = biological target: T1, HMGCoAR (catalytic domain) (Homo sapiens, UniProt P04035); experiment: HMGCoAR activity assay (NADPH oxidation, absorbance 340 nm); assay type: biochemical; settings: purified catalytic domain of HMGCoAR; H3 10-1000 μM; 37 °C; absorbance 340 nm at 0 and 10 min; three independent experiments in triplicate
T1 construct: HMGCoAR (catalytic domain) (2 µL); purchased Sigma-Aldrich
T1 sequence (P04035 426-888 limits assumed): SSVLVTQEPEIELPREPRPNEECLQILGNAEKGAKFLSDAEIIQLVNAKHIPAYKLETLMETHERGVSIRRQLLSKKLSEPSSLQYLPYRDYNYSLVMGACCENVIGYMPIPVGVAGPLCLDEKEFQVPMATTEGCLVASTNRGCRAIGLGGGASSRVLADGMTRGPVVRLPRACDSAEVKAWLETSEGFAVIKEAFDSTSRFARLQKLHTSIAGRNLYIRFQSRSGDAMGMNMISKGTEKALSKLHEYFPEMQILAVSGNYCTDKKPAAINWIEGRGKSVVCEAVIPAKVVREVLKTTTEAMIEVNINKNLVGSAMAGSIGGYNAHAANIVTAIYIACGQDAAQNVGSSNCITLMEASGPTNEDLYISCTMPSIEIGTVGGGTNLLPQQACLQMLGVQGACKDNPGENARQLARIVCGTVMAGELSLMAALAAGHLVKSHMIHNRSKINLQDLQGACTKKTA

IC50 [1]: 59 µM
Sequence: IGFLIIWV [H3]
reduced cell viability (HepG2 cells; 1 mM H3, mean ± S.D. of three experiments in triplicate, Figure S1): 19.63 ± 0.59% | effect on HepG2 viability (HepG2 cells; up to 100 µM, versus control cells, three experiments in triplicate): no effect on HepG2 viability was observed up to 100 µM | intestinal trans-epithelial transport (Caco-2 cells): transported intact by differentiated Caco-2
